Molecular target: IDH1 (R132H) (Homo sapiens (Human), UniProt O75874, R132H)
Test: Enzyme assay, NADPH decrease detected with Diaphorase/Resazurin
Format: biochemical
Details: 40 nM enzyme, 20 μM NADPH, incubated at 23° C. for 16 hours before α-KG; 12 concentrations
Description: Resazurin is a traditional redox dye, and after a redox reaction, it can be reduced from a blue resazurin without fluorescence to a pink fluorescent substance, resorufin, which can be measured and quantified with relative fluorescence unit (RFU) of fluorophotometer (Ex=530-570 nm, Em=590-620 nm). At present, resazurin is widely used for determining the viability of bacteria, cells, etc. and the enzyme activity detection of oxidoreductase. We detected the decrease of cofactor NADPH to determine the inhibitory activity of a compound against IDHm and detected the generation of cofactor NADPH to determine the inhibitory activity of a compound against IDH WT.
The compound was pre-incubated with IDHm and NADPH, and then the reaction was initiated by adding α-KG and performed for certain time under a linear condition.
Then, Diaphorase (lipoamide dehydrogenase) and the corresponding substrate Resazurin were added thereto for detection. Lipoamide dehydrogenase terminated the IDH2m reaction by decreasing the available cofactor NADPH, which oxidized NADPH to NADP, and reduced resazurin to high fluorescent resorufin. The amount of the remaining cofactor NADPH after a specific reaction time was quantified via an easily detectable fluorophore.
The specific operation was as follows: 2.5 μl of the compound diluted in a 3-fold gradient was added to a 384-well plate, followed by adding 5 μL of the reaction buffer (20 mM Tris-HCl, pH 7.5; 150 mM NaCl; 10 mM MgCl2; 0.4 mg/mL BSA (Bovine Serum Albumin) and 2 mM DTT (dithiothreitol)) containing 40 nM IDH1 (R132H/R132C) and 20 μM NADPH. Then, the above test mixture was incubated at 23° C. for 16 hours, and then 2.5 μL of the reaction buffer containing 4 mM α-KG was added to initiate the reaction. After they were incubated for 60 minutes at room temperature, 5 μL of the termination mixture (0.4 U/ml Diaphorase and 20 μM Resazurin) formulated with the reaction buffer was added to convert resazurin to resorufin, so as to measure the amount of the remaining NADPH. After incubating at 23° C. for 10 minutes, fluorescence values were determined through Flexstation 3 at Ex535/Em595. The enzyme activity of each compound was respectively determined at 12 concentrations, and the data were calculated using the software GraFit6.0 (Erithacus Software) to obtain the IC50 value of each compound.

Chain of IDH1 (R132H) (O75874 whole entry R132H): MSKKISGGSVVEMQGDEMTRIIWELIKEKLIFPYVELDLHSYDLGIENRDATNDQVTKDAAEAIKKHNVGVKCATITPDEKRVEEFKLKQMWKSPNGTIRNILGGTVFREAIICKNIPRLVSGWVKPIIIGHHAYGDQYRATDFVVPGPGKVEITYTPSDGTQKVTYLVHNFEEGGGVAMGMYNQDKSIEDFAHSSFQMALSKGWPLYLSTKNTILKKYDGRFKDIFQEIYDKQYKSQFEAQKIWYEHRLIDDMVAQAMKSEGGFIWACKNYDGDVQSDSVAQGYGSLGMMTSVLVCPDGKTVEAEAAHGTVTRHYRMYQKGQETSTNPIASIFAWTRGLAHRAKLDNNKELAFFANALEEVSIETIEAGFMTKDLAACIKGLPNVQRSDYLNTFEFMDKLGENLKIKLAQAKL

SMILES: CC(C)[C@@H]1CN1S(=O)(=O)NCC(=O)N(c1cccc(F)c1)C(C(=O)NC1CCCCC1)c1ccccc1Cl (stereo in doubt) [Example 9, 2-(2-chlorophenyl)-N-cyclohexyl-2-(N-(3-fluorophenyl)-2-((R)-2-isopropylaziridine-1-sulfonylamino)acetamido)acetamide]
- IC50: < 100 nM

SMILES: O=C(NC1CCCCC1)C(c1ccccc1Cl)N(C(=O)CNS(=O)(=O)N1CC1)c1cccc(F)c1 (centres unmarked) [Example 1, 2-(aziridinyl-1-sulfonylamino)-N-(1-(2-chlorophenyl)-2-(cyclohexylamino)-2-oxoethyl)-N-(3-fluorophenyl)acetamide]
- IC50: < 20 nM

SMILES: C[C@H](NS(=O)(=O)N1CC1)C(=O)N(c1cccc(F)c1)C(C(=O)NC1CCCCC1)c1ccccc1Cl (some centres unmarked) [Example 2, (2)-2-(aziridine-1-sulfonylamino)-N-(1-(2-chlorophenyl)-2-(cyclohexylamino)-2-oxoethyl)-N-(3-fluorophenyl)propanamide]
- IC50: < 500 nM

SMILES: C[C@@H](NS(=O)(=O)N1CC1)C(=O)N(c1cccc(F)c1)[C@@H](C(=O)NC1CCCCC1)c1ccccc1Cl [Example 3, (R)-2-(aziridine-1-sulfonylamino)-N—((R)-(2-chlorophenyl)-2-(cyclohexylamino)-2-oxoethyl)-N-(3-fluorophenyl)propanamide]
- IC50: < 10000 nM

SMILES: C[C@@H](NS(=O)(=O)N1CC1)C(=O)N(c1cccc(F)c1)[C@H](C(=O)NC1CCCCC1)c1ccccc1Cl [Example 4, (R)-2-(aziridine-1-sulfonylamino)-N—((S)-1-(2-chlorophenyl)-2-(cyclohexylamino)-2-oxoethyl)-N-(3-fluorophenyl)propanamide]
- IC50: < 100 nM

SMILES: O=C(NC1CCCCC1)C(c1ccccc1Cl)N(C(=O)CCNS(=O)(=O)N1CC1)c1cccc(F)c1 (centres unmarked) [Example 5, 3-(aziridine-1-sulfonylamino)-N-(1-(2-chlorophenyl)-2-(cyclohexylamino)-2-oxoethyl)-N-(3-fluorophenyl)propanamide]
- IC50: < 20 nM

SMILES: O=C(NC1CCCCC1)C(c1ccccc1Cl)N(C(=O)CCS(=O)(=O)N1CC1)c1cccc(F)c1 (centres unmarked) [Example 6, 3-(aziridin-1-ylsulfonyl)-N-(1-(2-chlorophenyl)-2-(cyclohexylamino)-2-oxoethyl)-N-(3-fluorophenyl)propanamide]
- IC50: < 20 nM

SMILES: CC(C)[C@@H]1CN1S(=O)(=O)N(CC(=O)N(c1cccc(F)c1)C(C(=O)NC1CCCCC1)c1ccccc1Cl)C(=O)OC(C)(C)C (some centres unmarked) [Example 7]
- IC50: < 10000 nM

SMILES: O=C(NC1CC(F)(F)C1)C(c1ccccc1Cl)N(C(=O)CCNS(=O)(=O)N1CC1)c1cccc(F)c1 (centres unmarked) [Example 8, 3-(aziridine-1-sulfonylamino)-N-(1-(2-chlorophenyl)-2-((3,3-difluorocyclobutyl)amino)-2-oxoethyl)-N-(3-fluorophenyl)propanamide]
- IC50: < 20 nM

SMILES: O=C(NC1CC(F)(F)C1)C(c1ccccc1Cl)N(C(=O)CNS(=O)(=O)N1CC1)c1cncc(F)c1 (centres unmarked) [Example 11, 2-(aziridine-1-sulfonylamino)-N-(1-(2-chlorophenyl)-2-((3,3-difluorocyclobutyl)amino)-2-oxoethyl)-N-(5-fluoropyridin-3-yl)acetamide]
- IC50: < 100 nM

SMILES: CN(CC(=O)N(c1cccc(F)c1)C(C(=O)NC1CCCCC1)c1ccccc1Cl)S(=O)(=O)N1CC1 (centres unmarked) [Example 12, 2-(2-chlorophenyl)-N-cyclohexyl-2-(N-(3-fluorophenyl)-2-(N-methylaziridine-1-sulfonylamino)acetamido)acetamide]
- IC50: < 20 nM

SMILES: O=C(NC1CC(F)(F)C1)C(c1ccccc1Cl)N(C(=O)CCCNS(=O)(=O)N1CC1)c1cccc(F)c1 (centres unmarked) [Example 13, 4-(aziridine-1-sulfonylamino)-N-(1-(2-chlorophenyl)-2-((3,3-difluorocyclobutyl)amino)-2-oxoethyl)-N-(3-fluorophenyl)butanamide]
- IC50: < 20 nM

SMILES: O=C(NC1CC(F)(F)C1)C(c1ccccc1Cl)N(C(=O)CCS(=O)(=O)N1CC1)c1cccc(F)c1 (centres unmarked) [Example 14, 3-(aziridin-1-ylsulfonyl)-N-(1-(2-chlorophenyl)-2-((3,3-difluorocyclobutyl)amino)-2-oxoethyl)-N-(3-fluorophenyl)propanamide]
- IC50: < 20 nM

SMILES: O=C(NC1CCCCC1)C(c1ccccc1Cl)N(C(=O)CS(=O)(=O)N1CC1)c1cccc(F)c1 (centres unmarked) [Example 15, 2-(aziridin-1-ylsulfonyl)-N-(1-(2-chlorophenyl)-2-(cyclohexylamino)-2-oxoethyl)-N-(3-fluorophenyl)acetamide]
- IC50: < 20 nM

SMILES: O=C(NC1CCCCC1)C(c1ccccc1Cl)N(C(=O)CNS(=O)(=O)N1CC1)c1cc(F)cc(F)c1 (centres unmarked) [Example 16, 2-(aziridine-1-sulfonylamino)-N-(1-(2-chlorophenyl)-2-(cyclohexylamino)-2-oxoethyl)-N-(3,5-difluorophenyl)acetamide]
- IC50: < 20 nM

SMILES: O=C(NC1CCCCC1)C(c1ccccc1Cl)N(C(=O)CNS(=O)(=O)N1CC1)c1cncc(F)c1 (centres unmarked) [Example 17, 2-(aziridine-1-sulfonylamino)-N-(1-(2-chlorophenyl)-2-(cyclohexylamino)-2-oxoethyl)-N-(5-fluoropyridin-3-yl)acetamide]
- IC50: < 20 nM

SMILES: O=C(NC1CCCCC1)[C@@H](c1ccccc1Cl)N(C(=O)[C@@H]1CCCN1S(=O)(=O)N1CC1)c1cccc(F)c1 [Example 18, (S)-1-(aziridin-1-ylsulfonyl)-N—((R)-1-(2-chlorophenyl)-2-(cyclohexylamino)-2-oxoethyl)-N-(3-fluorophenyl)pyrrolidine-2-carboxamide]
- IC50: < 10000 nM

SMILES: O=C(NC1CCCCC1)[C@H](c1ccccc1Cl)N(C(=O)[C@@H]1CCCN1S(=O)(=O)N1CC1)c1cccc(F)c1 [Example 19, (S)-1-(aziridin-1-ylsulfonyl)-N—((S)-1-(2-chlorophenyl)-2-(cyclohexylamino)-2-oxoethyl)-N-(3-fluorophenyl)pyrrolidine-2-carboxamide]
- IC50: < 100 nM

SMILES: O=C(NC1CCCCC1)C(c1ccccc1Cl)N(C(=O)CCCCS(=O)(=O)N1CC1)c1cccc(F)c1 (centres unmarked) [Example 20, 5-(aziridin-1-ylsulfonyl)-N-(1-(2-chlorophenyl)-2-(cyclohexylamino)-2-oxoethyl)-N-(3-fluorophenyl)pentanamide]
- IC50: < 20 nM

SMILES: O=C(NC1CCCCC1)C(c1ccccc1Cl)N(C(=O)CCCS(=O)(=O)N1CC1)c1cccc(F)c1 (centres unmarked) [Example 21, 4-(aziridin-1-ylsulfonyl)-N-(1-(2-chlorophenyl)-2-(cyclohexylamino)-2-oxoethyl)-N-(3-fluorophenyl)butanamide]
- IC50: < 20 nM

SMILES: O=C(NC1CCCCC1)C(c1ccccc1Cl)N(C(=O)C1CC(NS(=O)(=O)N2CC2)C1)c1cccc(F)c1 (centres unmarked) [Example 22, 3-(aziridine-1-sulfonylamino)-N-(1-(2-chlorophenyl)-2-cyclohexylamino-2-oxoethyl)-N-(3-fluorophenyl)cyclobutyl carboxamide]
- IC50: < 20 nM

SMILES: O=C(NC1CC(F)(F)C1)C(c1ccccc1Cl)N(C(=O)CNS(=O)(=O)N1CC1)c1cccc(C(F)(F)F)c1 (centres unmarked) [Example 23, 2-(aziridine-1-sulfonylamino)-N-(1-(2-chlorophenyl)-2-((3,3-difluorocyclobutyl)amino)-2-oxoethyl)-N-(3-trifluoromethylphenyl)acetamide]
- IC50: < 100 nM

SMILES: O=C(NC1CCCCC1)C(c1ccccc1Cl)N(C(=O)C1CN(S(=O)(=O)N2CC2)C1)c1cccc(F)c1 (centres unmarked) [Example 24, 1-(aziridin-1-ylsulfonyl)-N-(1-(2-chlorophenyl)-2-cyclohexylamino-2-oxoethyl)-N-(3-fluorophenyl)azetidine-3-carboxamide]
- IC50: < 20 nM

SMILES: O=C(NC1CC(F)(F)C1)[C@@H](c1ccccc1Cl)N(C(=O)CNS(=O)(=O)N1CC1)c1cccc(F)c1 [Example 26, (R)-2-(aziridine-1-sulfonylamino)-N-(1-(2-chlorophenyl)-2-((3,3-difluorocyclobutyl)amino)-2-oxoethyl)-N-(3-fluorophenyl)acetamide]
- IC50: < 100 nM

SMILES: O=C(NC1CCCCC1)C(c1ccccc1Cl)N(C(=O)C1CCN(S(=O)(=O)N2CC2)C1)c1cccc(F)c1 (centres unmarked) [Example 27, 1-(aziridin-1-ylsulfonyl)-N-(1-(2-chlorophenyl)-2-cyclohexylamino-2-oxoethyl)-N-(3-fluorophenyl)pyrrolidine-3-carboxamide]
- IC50: < 20 nM

SMILES: NS(=O)(=O)c1cccc(N(C(=O)CNS(=O)(=O)N2CC2)C(C(=O)NC2CC(F)(F)C2)c2ccccc2Cl)c1 (centres unmarked) [Example 28, 2-(aziridine-1-sulfonylamino)-N-(1-(2-chlorophenyl)-2-((3,3-difluorocyclobutyl)amino)-2-oxoethyl)-N-(3-aminosulfonylphenyl)acetamide]
- IC50: < 100 nM

— patent publication US11203586B2, “Iridinesulfonamide compound and use method thereof” (Chia Tai Tianqing Pharmaceutical Group Co., Ltd., priority 2016, dated 2021)
